# pIC50: −log10 of the molar value. Several values for one entry are separate records, joined by “and”; a condition that tells them apart may be missing. Equal entries are not always repeated.
# What was measured:
# A. baumannii ATCC 19606 = experiment: MIC studies in LB Media; type: cell-based; conditions: Acinetobacter baumannii, ATCC19606, read-out: Minimum Inhibitory Concentration in LB Media, A. ba
# Description: (§1) Bacterial cultures that were stored as glycerol stocks at −80° C. were sub cultured on LB agar plates to obtain isolated colonies. A single colony of each strain was cultured in LB broth. The cultures were incubated at 37° C., 200 rpm till they reach an optical density (OD at 600 nm) of 0.8 to 1. […] Test compounds were dissolved in dimethyl sulfoxide (DMSO) to a stock concentration of 4 mg/ml. A two-fold dilution series of this DMSO stock was prepared in a 96 well V bottom microtitre plate from rows A to H. A 3 μL volume of these dilutions were transferred to a 96-well flat bottom microtitre assay plate. Controls to monitor the effects of DMSO and media sterility were included. Each well was inoculated with 150 μL of the above diluted culture. The plates were incubated at 37° C. overnight in a humidified incubator. The following morning, the plates were read using a Spectrophotometer at 600 nm wavelength.
# [1] = test system: Citrobacter freundii ATCC 43864; experiment: MIC studies in LB Media; type: cell-based; conditions: ATCC43864, read-out: Minimum Inhibitory Concentration in LB Media, C. fr
# Description: as §1
# E. coli ATCC 25922 = experiment: MIC studies in LB Media; type: cell-based; conditions: Escherichia coli, ATCC25922, read-out: Minimum Inhibitory Concentration in LB Media, E. co
# Description: as §1
# E. faecalis ATCC 29212 = experiment: MIC studies in LB Media; type: cell-based; conditions: Enterococcus faecalis, ATCC29212, read-out: Minimum Inhibitory Concentration in LB Media, E. fa
# Description: as §1
# [2] = test system: Enterobacter cloacae ATCC 13047; experiment: MIC studies in LB Media; type: cell-based; conditions: ATCC13047, read-out: Minimum Inhibitory Concentration in LB Media, E. cl
# Description: as §1
# K. pneumoniae ATCC 13883 = experiment: MIC studies in LB Media; type: cell-based; conditions: Klebsiella pneumoniae, ATCC13883, read-out: Minimum Inhibitory Concentration in LB Media, K. pn
# Description: as §1
# [3] = test system: Morganella morganii ATCC 25830; experiment: MIC studies in LB Media; type: cell-based; conditions: ATCC25830, read-out: Minimum Inhibitory Concentration in LB Media, M. mo
# Description: as §1
# P. aurigenosa ATCC 27853 = experiment: MIC studies in LB Media; type: cell-based; conditions: Pseudomonas aeruginosa, ATCC27853, read-out: Minimum Inhibitory Concentration in LB Media, P. ae
# Description: as §1
# [4] = test system: Proteus mirabilis ATCC 43071; experiment: MIC studies in LB Media; type: cell-based; conditions: ATCC43071, read-out: Minimum Inhibitory Concentration in LB Media, P. mi
# Description: as §1
# S. aureus ATCC 29213 = experiment: MIC studies in LB Media; type: cell-based; conditions: Staphylococcus aureus, ATCC29213, MIC = 90% inhibition of growth, read-out: Minimum Inhibitory Concentration in LB Media, S. au
# Description: as §1
# E. coli DNA gyrase = E. coli DNA gyrase (Escherichia coli, UniProt P0AES4+P0AES6); experiment: biochemical; conditions: gel based supercoiling assay; read-out: E. coli DNA Gyrase IC50
# E. coli topoisomerase IV = E. coli topoisomerase IV (Escherichia coli, UniProt P0AFI2+P20083); experiment: biochemical; conditions: gel based decatenation assay; read-out: E. coli Topo IV IC50
# hERG potassium channel = molecular target: T1, hERG potassium channel (Homo sapiens, UniProt Q12809); experiment: hERG inhibition assay, QPatch HTX automated electrophysiology; type: cell-based; conditions: CHO cell line expressing hERG; whole-cell patch clamp, room temperature
# T1 construct: Chinese Hamster Ovary cell line stably expressing the full-length hERG potassium channel; expressed in transfected cells
# Description: The compounds were tested for inhibition of the human ether a go-go related gene (hERG) K+ channel using QPatch HTX automated electrophysiology.
# Compounds of Formula I were solubilised to 100 mM in DMSO before dilution in HBPS to 300 μM.
# Electrophysiological recordings were made from a Chinese Hamster Ovary cell line stably expressing the full-length hERG potassium channel. Single cell ionic currents were measured in whole-cell patch clamp configuration at room temperature (21-23° C.) using the QPatch HTX platform (Sophion). Intracellular solution contained (mM): 120 KF, 20 KCl, 10 EGTA, 10 HEPES and was buffered to pH 7.3. […] Cells were clamped at a holding potential of −80 mV. Cells were stepped to +20 mV for 2 s then −40 mV for 3 s before returning to the holding potential. This sweep was repeated 10 times at 10 s intervals. hERG currents were measured from the tail step and referenced to the holding current. Compounds were then incubated for 2 minutes prior to a second measurement of ion channel current using an identical pulse train.
# E. coli clinical strains = experiment: Susceptibility (MIC50 and MIC90 determination) studies, clinical strains; type: cell-based; conditions: CLSI
# [5] = test system: A. baumanni clinical strains; experiment: as above; type: cell-based; conditions: CLSI
# [6] = test system: K. pneumoniae clinical strains; experiment: as above; type: cell-based; conditions: CLSI
# [7] = test system: P. aurigenosa clinical strains; experiment: as above; type: cell-based; conditions: CLSI
# [8] = test system: E. cloacae clinical strains; experiment: as above; type: cell-based; conditions: CLSI
# [9] = test system: P. aeruginosa [ATCC27853]; experiment: Neutropenic Lung Infection Model in Rat; type: in vivo; conditions: 30 mg/kg, i.v. bolus
# Description: Animals were placed into an induction chamber and anaesthesia was induced by exposing the animals to 3-5% Isoflurane in an oxygen flow set at approximately (˜) 1 liter per minute (LPM). […] A gentle mixing of inoculum between two animals was followed for uniform distribution.
# Meropenem was formulated in saline.
# Entire Lung was aseptically isolated, weighed and placed into 1 mL of sterile CSDB broth, and homogenized (Omni Tip (220 V hand held)). Serial ten-fold dilutions of the lungs homogenates were prepared in sterile CSD broth and 0.05 mL of four dilutions for each tissue was plated onto CSDA agar plates. Bacterial colonies were enumerated following overnight incubation at 37° C. Bacterial densities were estimated as Log10 CFU/g lung. The Mean±SD Log10 CFU/g lung was estimated in each group.
# E. coli [ATCC25922] = experiment: Urinary Tract Infection Rat Model (kidneys, bladder); conditions: 30 mg/kg, i.v. bolus
# [10] = Escherichia coli, E. coli clinical strains
# [11] = Klebsiella pneumoniae, Kpn clinical strains
# [12] = individual animals, 24 h post infection
# E. coli DNA gyrase, sequence (P0AES4 whole entry, one chain of several): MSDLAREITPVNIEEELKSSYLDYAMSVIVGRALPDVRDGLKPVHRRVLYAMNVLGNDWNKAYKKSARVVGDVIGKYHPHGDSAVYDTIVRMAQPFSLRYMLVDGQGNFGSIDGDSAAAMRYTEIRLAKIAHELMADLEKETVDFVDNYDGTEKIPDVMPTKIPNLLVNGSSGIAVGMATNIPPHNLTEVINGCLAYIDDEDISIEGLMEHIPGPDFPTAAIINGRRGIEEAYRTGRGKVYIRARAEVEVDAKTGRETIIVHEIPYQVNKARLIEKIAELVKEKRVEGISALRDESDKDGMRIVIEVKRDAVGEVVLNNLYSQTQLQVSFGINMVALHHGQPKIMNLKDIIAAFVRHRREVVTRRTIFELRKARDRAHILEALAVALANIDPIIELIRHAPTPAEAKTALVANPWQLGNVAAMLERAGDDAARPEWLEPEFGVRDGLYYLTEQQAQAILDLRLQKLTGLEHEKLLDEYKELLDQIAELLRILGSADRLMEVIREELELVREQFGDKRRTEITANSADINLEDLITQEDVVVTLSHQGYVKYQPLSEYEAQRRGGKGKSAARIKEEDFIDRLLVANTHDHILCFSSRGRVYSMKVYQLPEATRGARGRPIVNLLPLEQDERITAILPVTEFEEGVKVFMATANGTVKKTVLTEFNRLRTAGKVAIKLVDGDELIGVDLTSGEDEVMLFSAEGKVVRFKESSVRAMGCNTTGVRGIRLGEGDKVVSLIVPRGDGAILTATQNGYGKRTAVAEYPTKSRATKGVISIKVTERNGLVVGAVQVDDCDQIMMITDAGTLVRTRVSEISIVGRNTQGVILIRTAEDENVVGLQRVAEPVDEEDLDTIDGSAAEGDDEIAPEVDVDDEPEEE
# T1 sequence (Q12809 whole entry): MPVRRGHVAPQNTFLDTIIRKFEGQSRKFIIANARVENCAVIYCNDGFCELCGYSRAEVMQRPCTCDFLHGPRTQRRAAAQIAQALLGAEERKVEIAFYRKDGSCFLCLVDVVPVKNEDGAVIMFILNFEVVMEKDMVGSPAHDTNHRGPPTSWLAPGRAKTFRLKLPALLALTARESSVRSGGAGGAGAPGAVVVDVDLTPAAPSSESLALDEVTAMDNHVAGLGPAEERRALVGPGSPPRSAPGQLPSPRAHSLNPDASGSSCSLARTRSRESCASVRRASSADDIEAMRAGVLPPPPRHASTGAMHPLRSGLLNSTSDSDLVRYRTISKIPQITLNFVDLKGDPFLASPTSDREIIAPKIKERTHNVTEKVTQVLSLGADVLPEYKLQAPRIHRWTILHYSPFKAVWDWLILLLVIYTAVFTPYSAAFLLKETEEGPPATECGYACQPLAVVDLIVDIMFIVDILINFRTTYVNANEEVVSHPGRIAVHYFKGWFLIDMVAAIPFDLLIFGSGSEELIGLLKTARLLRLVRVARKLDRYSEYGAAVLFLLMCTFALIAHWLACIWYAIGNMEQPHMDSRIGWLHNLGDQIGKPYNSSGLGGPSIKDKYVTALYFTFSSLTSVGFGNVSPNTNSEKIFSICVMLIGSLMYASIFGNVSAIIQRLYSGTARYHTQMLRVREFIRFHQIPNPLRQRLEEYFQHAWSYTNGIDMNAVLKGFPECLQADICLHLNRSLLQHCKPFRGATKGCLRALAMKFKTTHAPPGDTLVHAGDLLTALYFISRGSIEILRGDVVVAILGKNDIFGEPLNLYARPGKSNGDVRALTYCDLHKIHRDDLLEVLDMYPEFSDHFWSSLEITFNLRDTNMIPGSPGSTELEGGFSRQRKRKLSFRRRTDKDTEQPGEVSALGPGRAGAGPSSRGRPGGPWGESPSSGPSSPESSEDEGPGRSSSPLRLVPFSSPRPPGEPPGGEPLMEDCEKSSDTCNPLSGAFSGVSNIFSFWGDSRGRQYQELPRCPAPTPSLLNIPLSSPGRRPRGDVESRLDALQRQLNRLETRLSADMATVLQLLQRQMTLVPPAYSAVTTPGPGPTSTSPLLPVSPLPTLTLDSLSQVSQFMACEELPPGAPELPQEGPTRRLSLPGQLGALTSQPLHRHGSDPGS
# E. coli topoisomerase IV, sequence (P20083 whole entry): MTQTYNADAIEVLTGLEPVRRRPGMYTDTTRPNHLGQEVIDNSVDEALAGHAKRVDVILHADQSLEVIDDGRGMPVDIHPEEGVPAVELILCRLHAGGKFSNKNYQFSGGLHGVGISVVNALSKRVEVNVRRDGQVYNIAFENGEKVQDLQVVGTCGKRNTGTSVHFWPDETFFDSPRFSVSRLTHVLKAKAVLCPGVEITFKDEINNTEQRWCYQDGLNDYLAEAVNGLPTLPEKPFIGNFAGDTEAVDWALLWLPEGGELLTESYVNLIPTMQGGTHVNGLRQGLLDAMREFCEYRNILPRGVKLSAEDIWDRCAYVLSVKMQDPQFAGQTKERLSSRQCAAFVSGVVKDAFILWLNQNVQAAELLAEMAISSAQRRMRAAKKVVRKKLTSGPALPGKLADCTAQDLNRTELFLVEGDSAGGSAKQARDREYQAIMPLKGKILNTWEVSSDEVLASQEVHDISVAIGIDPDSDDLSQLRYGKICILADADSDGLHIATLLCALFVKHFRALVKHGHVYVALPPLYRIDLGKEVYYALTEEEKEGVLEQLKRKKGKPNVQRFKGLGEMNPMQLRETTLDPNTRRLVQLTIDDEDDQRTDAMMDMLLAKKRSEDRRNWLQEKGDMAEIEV
# E. coli topoisomerase IV, sequence (P0AFI2 whole entry): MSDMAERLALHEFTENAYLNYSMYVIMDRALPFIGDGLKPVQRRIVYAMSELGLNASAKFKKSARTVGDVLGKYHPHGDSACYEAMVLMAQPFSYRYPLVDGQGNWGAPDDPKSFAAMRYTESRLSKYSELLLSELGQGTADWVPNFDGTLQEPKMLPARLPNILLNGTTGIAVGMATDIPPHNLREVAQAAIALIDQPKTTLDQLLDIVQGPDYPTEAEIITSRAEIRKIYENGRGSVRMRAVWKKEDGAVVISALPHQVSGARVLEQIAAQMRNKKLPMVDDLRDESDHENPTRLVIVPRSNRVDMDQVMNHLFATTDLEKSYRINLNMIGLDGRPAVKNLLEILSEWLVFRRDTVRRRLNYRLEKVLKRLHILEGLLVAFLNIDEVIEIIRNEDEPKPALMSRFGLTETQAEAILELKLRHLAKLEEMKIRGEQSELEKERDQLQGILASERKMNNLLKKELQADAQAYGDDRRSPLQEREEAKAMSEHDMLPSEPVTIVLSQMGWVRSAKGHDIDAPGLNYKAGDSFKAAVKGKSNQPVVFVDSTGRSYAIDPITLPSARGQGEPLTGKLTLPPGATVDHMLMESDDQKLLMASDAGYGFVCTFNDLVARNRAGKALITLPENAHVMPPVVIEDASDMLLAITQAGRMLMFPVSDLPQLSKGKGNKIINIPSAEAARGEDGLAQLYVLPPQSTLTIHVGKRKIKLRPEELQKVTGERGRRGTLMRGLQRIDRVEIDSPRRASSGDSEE
smiles,measurement,setting,value
"Cn1c(=O)cnc2ccc(F)c(OCCNC[C@H]3CN(c4cnc5c(n4)NC(=O)CO5)C(=O)O3)c21 [Compound 7, (S)-6-(5-(((2-((6-fluoro-4-methyl-3-oxo-3,4-dihydroquinoxalin-5-yl)oxy)ethyl)amino)methyl)-2-oxooxazolidin-3-yl)-2H-pyrazino[2,3-b][1,4]oxazin-3(4H)-one]",MIC,A. baumannii ATCC 19606,0.06 µg/mL
same,MIC,[1],0.06 µg/mL
same,MIC,E. coli ATCC 25922,0.03 µg/mL
same,MIC,E. faecalis ATCC 29212,0.06 µg/mL
same,MIC,[2],0.125 µg/mL
same,MIC,K. pneumoniae ATCC 13883,0.06 µg/mL
same,MIC,[3],0.06 µg/mL
same,MIC,P. aurigenosa ATCC 27853,0.25 µg/mL
same,MIC,[4],0.25 µg/mL
same,MIC,S. aureus ATCC 29213,≤ 0.015 µg/mL
same,pIC50,E. coli DNA gyrase,7.82
same,pIC50,E. coli topoisomerase IV,> 6.66
same,pIC50,hERG potassium channel,< 3.52
"CC(COc1c(F)ccc2ccc(=O)n(C)c12)NC[C@H]1CN(c2cnc3c(n2)NC(=O)CO3)C(=O)O1 (stereo partly drawn) [Compound 4, 6-((5S)-5-(((1-((7-fluoro-1-methyl-2-oxo-1,2-dihydroquinolin-8-yl)oxy)propan-2-yl)amino)methyl)-2-oxooxazolidin-3-yl)-2H-pyrazino[2,3-b][1,4]oxazin-3(4H)-one]",MIC,A. baumannii ATCC 19606,0.25 µg/mL
same,MIC,[1],0.5 µg/mL
same,MIC,E. coli ATCC 25922,0.25 µg/mL
same,MIC,E. faecalis ATCC 29212,0.125 µg/mL
same,MIC,[2],0.5 µg/mL
same,MIC,K. pneumoniae ATCC 13883,0.25 µg/mL
same,MIC,[3],1 µg/mL
same,MIC,P. aurigenosa ATCC 27853,2 µg/mL
same,MIC,[4],2 µg/mL
same,MIC,S. aureus ATCC 29213,0.06 µg/mL
same,pIC50,E. coli DNA gyrase,7.52
same,pIC50,E. coli topoisomerase IV,> 6.46
same,pIC50,hERG potassium channel,4.44
"C[C@@H](O)[C@H]1C(=O)N2C(C(=O)O)=C(S[C@@H]3CN[C@H](C(=O)N(C)C)C3)[C@H](C)[C@H]12 [Meropenem, meropenem, reference compound]",Minimum (MIC),"E. coli clinical strains; E. coli clinical strains, MIC50/MIC90 in μg/ml",0.03 µg/mL
same,MIC ATCC25922,"E. coli clinical strains; E. coli reference strain ATCC25922, MIC50/MIC90 in μg/ml",0.06 µg/mL
same,MIC50,E. coli clinical strains; [10],0.06 µg/mL
same,MIC90,E. coli clinical strains; [10],4 µg/mL
same,MIC50,[5]; Aba clinical strains,8 µg/mL
same,MIC90,[5]; Aba clinical strains,32 µg/mL
same,Minimum (MIC),"[5]; Aba clinical strains, MIC50/MIC90 in μg/ml, in µg/mL",0.03125
same,MIC ATCC19606,"[5]; Aba reference strain ATCC19606, MIC50/MIC90 in μg/ml",0.5 µg/mL
same,MIC50,[6]; [11],1 µg/mL
same,MIC90,[6]; [11],16 µg/mL
same,Minimum (MIC),"[6]; Kpn clinical strains, MIC50/MIC90 in μg/ml",0.03 µg/mL
same,MIC ATCC13883,"[6]; Kpn reference strain ATCC13883, MIC50/MIC90 in μg/ml",0.06 µg/mL
same,MIC50,[7]; Pae clinical strains,2 µg/mL
same,MIC90,[7]; Pae clinical strains,8 µg/mL
same,Minimum (MIC),"[7]; Pae clinical strains, MIC50/MIC90 in μg/ml",0.03 µg/mL
same,MIC ATCC27853,"[7]; Pae reference strain ATCC27853, MIC50/MIC90 in μg/ml",0.5 µg/mL
same,Minimum (MIC),[8]; MIC50/MIC90 in μg/ml,0.06 µg/mL
same,MIC50,[8]; Enterobacter cloacae,0.25 µg/mL
same,MIC90,[8]; Enterobacter cloacae,16 µg/mL
same,MEAN ± SD (Log10 CFU/g Lung),[9],5.43 ± 0.14 Log10 CFU/g Lung
same,Mean Log 10 CFU/g lung reduction (wrt 4 h PI control: 6.52 Log10CFU/g lung),[9],1.09 Log 10 CFU/g lung
same,Log10 CFU/g Lung,[9]; [12],5.35 Log10 CFU/g Lung and 5.36 Log10 CFU/g Lung and 5.59 Log10 CFU/g Lung
same,MEAN ± SD (Log10 CFU/g kidneys),E. coli [ATCC25922],3.83 ± 0.27 Log10 CFU/g kidneys
same,MEAN ± SD (Log10 CFU/ml Bladder),E. coli [ATCC25922],4.69 ± 0.32 Log10 CFU/ml Bladder
same,Mean Log10CFU/g kidney reduction (wrt 4 h PI control: 4.53 Log10CFU/g kidneys),E. coli [ATCC25922],0.70 Log10CFU/g kidney
same,Mean Log10 CFU/ml Bladder reduction (wrt 4 h PI control: 5.72 CFU/ml Bladder),E. coli [ATCC25922],1.03 Log10 CFU/ml Bladder
same,Log10 CFU/g (Left Kidney),E. coli [ATCC25922]; [12],3.61 Log10 CFU/g and 3.92 Log10 CFU/g and 4.06 Log10 CFU/g
same,Log10 CFU/g (Right Kidney),E. coli [ATCC25922]; [12],3.41 Log10 CFU/g and 4.12 Log10 CFU/g and 3.87 Log10 CFU/g
same,Log10 CFU/ml Bladder,E. coli [ATCC25922]; [12],4.87 Log10 CFU/ml Bladder and 4.33 Log10 CFU/ml Bladder and 4.89 Log10 CFU/ml Bladder
"Cn1c(=O)cnc2ccc(F)c(OCCNC[C@H]3CN(c4cnc5c(n4)NC(=O)CS5)C(=O)O3)c21 [Compound 10, (S)-5-(((2-((6-fluoro-4-methyl-3-oxo-3,4-dihydroquinoxalin-5-yl)oxy)ethyl)amino)methyl)-3-(3-oxo-3,4-dihydro-2H-pyrazino[2,3-b][1,4]thiazin-6-yl)oxazolidin-2-one]",MIC,A. baumannii ATCC 19606,0.013 µg/mL
same,MIC,[1],0.025 µg/mL
same,MIC,E. coli ATCC 25922,0.025 µg/mL
same,MIC,E. faecalis ATCC 29212,0.025 µg/mL
same,MIC,[2],0.05 µg/mL
same,MIC,K. pneumoniae ATCC 13883,0.025 µg/mL
same,MIC,[3],0.025 µg/mL
same,MIC,P. aurigenosa ATCC 27853,0.25 µg/mL
same,MIC,[4],0.125 µg/mL
same,MIC,S. aureus ATCC 29213,≤ 0.003 µg/mL
same,pIC50,E. coli DNA gyrase,7.66
same,pIC50,E. coli topoisomerase IV,> 6.43
same,pIC50,hERG potassium channel,4.72
"Cn1c(=O)ccc2nccc(OCCNC[C@H]3CN(c4ccc5c(n4)NC(=O)CO5)C(=O)O3)c21 [Compound 1, (S)-6-(5-(((2-((5-methyl-6-oxo-5,6-dihydro-1,5-naphthyridin-4-yl)oxy)ethyl)amino)methyl)-2-oxooxazolidin-3-yl)-2H-pyrido[3,2-b][1,4]oxazin-3(4H)-one]",MIC,A. baumannii ATCC 19606,2 µg/mL
same,MIC,[1],1 µg/mL
same,MIC,E. coli ATCC 25922,0.5 µg/mL
same,MIC,E. faecalis ATCC 29212,1 µg/mL
same,MIC,[2],8 µg/mL
same,MIC,K. pneumoniae ATCC 13883,1 µg/mL
same,MIC,[3],2 µg/mL
same,MIC,P. aurigenosa ATCC 27853,4 µg/mL
same,MIC,[4],16 µg/mL
same,MIC,S. aureus ATCC 29213,0.25 µg/mL
same,pIC50,E. coli DNA gyrase,> 6.60
same,pIC50,E. coli topoisomerase IV,> 6.60
same,pIC50,hERG potassium channel,< 4.00
